Tests used:
H460 xenograft = H460 xenograft growth in nude mice; assay type: in vivo, human; settings: ephrin-A1-Fc 5 μg/g i.p. once every two days, five times, Alimta 150 mg/kg i.p. daily x 5 days
Protocol: FIGS. 16(A-B) illustrate, A) Systemic treatment with ephrin-A1-Fc, but not control Fc, inhibited the growth of H1975 NSCLC xenografts. Eight-week old NCR nude mice were injected with 2×10^6 H1975 cells s.c. into the hind flanks. One week later, when the tumors had reached an average of about 100 mm3, mice (5/group) were injected i.p. twice a week with Fc or ephrin-A1-Fc at 2.5 or 5.0 μg/g. Equal volume of PBS was used as control. The day of the first treatment was designated as day 1. Rapid tumor growth necessitated termination of experiment at day 18. B) Comparison between ephrin-A1-Fc and Alimta for therapeutic efficacy on H460 xenografts. Cell implantation and treatment were the same as in (A). Alimta/Pemetrexed was injected at 150 mg/kg, i.p daily×5 days), or ephrin-A1-Fc (5 μg/g, mouse, i.p, once every two days, for five times). Note ephrin-A1-Fc treatment achieved better efficacy of tumor growth inhibition than Alimta, a new drug for lung cancer therapy in this cell type. * Indicates significant difference between PBS and ephrin-A1-treated groups, p<0.05.
We next compared ephrin-A1-Fc and Alimta/Pemetrexed for therapeutic efficacy against H460 xenograft. H460 cells are derived from a lung adenocarcinoma that express moderate levels of EphA2 (not shown). […]

PP2A = settings: low concentrations; cited from earlier work
ERK1/2 = test: Immunoblot of p-ERK1/2 in DU145 cells; assay type: cell-based, human; settings: DU145-vector, okadaic acid pretreatment 1 h, then ephrin-A1 30 min
Protocol: (§1) A Immunoblot analysis of the expression and tyrosine phosphorylation of EphA2 in DU145 cells. Parental DU145 cells were stably infected with a retroviral vector expressing wild-type EphA2 or empty vector. Clonal puromycin-resistant cells were isolated and expanded. The selected cells at 70-80% confluence were stimulated with 2 μg/ml ephrin-A1-Fc for the indicated times. The total cell lysates were resolved by SDS-PAGE and then probed with rabbit polyclonal anti-p-EphA/B and anti-EphA2 antibodies. […] The cells were treated as described in (A). Cell lysates were subject to immunoblot with the indicated antibodies.
(§2) DU145-vector cells were pretreated with okadaic acid (10, 50, and 250 nM) for 1 h, followed by stimulation with ephrin-A1-Fc for 30 min. The total cellular lysates were prepared and subjected to immunoblot analyses as described in FIG. 1 using the indicated antibodies. Notes: Okadaic acid inhibits only PP2A at low concentrations (<100 nM), but it inhibits both PP1 and PP2A at higher concentrations (>100 nM).
(§3) A. Cells were treated with rapamycin (1 nM) in the absence or presence of ephrin-A1 (2 μg/ml) for the indicated times Immunoblot analysis was performed as described above. […]

Akt = test: Immunoblot of p-Akt (Ser473) in DU145 cells; assay type: cell-based, human; settings: DU145-vector, then ephrin-A1 30 min
Protocol: as §1, §2, §3

PP1 = settings: higher concentrations; cited from earlier work

Compound | growth of H460 xenograft (H460 xenograft) | concentrations at which only PP2A is inhibited (PP2A) | effects on ERK1/2 under the same conditions (ERK1/2) | effect on Akt dephosphorylation induced by EphA2 activation (Akt; okadaic acid 250 nM pretreatment 1 h) | effect on Akt dephosphorylation induced by EphA2 activation (Akt; okadaic acid 10 and 50 nM pretreatment 1 h) | concentrations at which both PP1 and PP2A are inhibited (PP1)
Nc1nc2[nH]cc(CCc3ccc(C(=O)N[C@@H](CCC(=O)O)C(=O)O)cc3)c2c(=O)[nH]1 [Alimta, Pemetrexed] | minimal effects |  |  |  |  | 
C=C1[C@@H](O)[C@@H]2O[C@]3(CC[C@H](/C=C/[C@@H](C)[C@@H]4CC(C)=C[C@@]5(O[C@H](C[C@@](C)(O)C(=O)O)CC[C@H]5O)O4)O3)CC[C@H]2O[C@@H]1[C@@H](O)C[C@H](C)[C@H]1O[C@@]2(CCCCO2)CC[C@H]1C [okadaic acid] |  | < 100 nM | not as pronounced | completely blocked | did not affect Akt dephosphorylation | > 100 nM

Reference: patent publication US20170165322A1, “PEPTIDE AND SMALL MOLECULE AGONISTS OF EPHA AND THEIR USES IN DISEASE” (CASE WESTERN RESERVE UNIVERSITY, priority 2006, published 2017)
